Assay results from ChEMBL document CHEMBL5034015, “Structure-Based Optimization of 3-Phenyl-N-(2-(3-phenylureido)ethyl)thiophene-2-sulfonamide Derivatives as Selective Mcl-1 Inhibitors” (J Med Chem, 2021).
The source made the active and inactive calls. Unless noted, the rule behind the calls is not given here.

What was measured:
HeLa [1] = assay: cells; conditions: Homo sapiens, 48 h
Description: Cytotoxicity against human HeLa cells assessed as inhibition of cell growth incubated for 48 hrs by CCK8 assay

HL-60 = assay: cells; conditions: Homo sapiens, HL-60, 48 h
Description: Cytotoxicity against human HL-60 cells assessed as inhibition of cell growth incubated for 48 hrs by CCK8 assay

[2] = target: T1, Apoptosis regulator Bcl-2 (Homo sapiens, UniProt P10415); assay: Binding affinity to full length human Bcl-2 expressed in Escherichia coli BL21 (DE3) assessed as inhibition constant preincubated for 30 mins followed by 5-FAM-QEDIIIINIARHLAQVGDSMD-RSIPPG tracer addition and measured after 20 mins by fluorescence polarization assay
T1 sequence (P10415 whole entry): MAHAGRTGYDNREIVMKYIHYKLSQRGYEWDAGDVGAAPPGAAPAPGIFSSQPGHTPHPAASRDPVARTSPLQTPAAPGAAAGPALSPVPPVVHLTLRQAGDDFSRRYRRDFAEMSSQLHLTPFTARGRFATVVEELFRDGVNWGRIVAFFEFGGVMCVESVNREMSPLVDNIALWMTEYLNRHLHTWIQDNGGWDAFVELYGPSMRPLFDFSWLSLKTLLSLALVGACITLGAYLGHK

[3] = target: T2, Induced myeloid leukemia cell differentiation protein Mcl-1 (Homo sapiens, UniProt Q07820); assay: Binding affinity to full length human MCL1 expressed in Escherichia coli BL21 (DE3) assessed as inhibition constant preincubated for 30 mins followed by 5-FAM-QEDIIIINIARHLAQVGDSMD-RSIPPG tracer addition and measured after 20 mins by fluorescence polarization assay
T2 sequence (Q07820 whole entry): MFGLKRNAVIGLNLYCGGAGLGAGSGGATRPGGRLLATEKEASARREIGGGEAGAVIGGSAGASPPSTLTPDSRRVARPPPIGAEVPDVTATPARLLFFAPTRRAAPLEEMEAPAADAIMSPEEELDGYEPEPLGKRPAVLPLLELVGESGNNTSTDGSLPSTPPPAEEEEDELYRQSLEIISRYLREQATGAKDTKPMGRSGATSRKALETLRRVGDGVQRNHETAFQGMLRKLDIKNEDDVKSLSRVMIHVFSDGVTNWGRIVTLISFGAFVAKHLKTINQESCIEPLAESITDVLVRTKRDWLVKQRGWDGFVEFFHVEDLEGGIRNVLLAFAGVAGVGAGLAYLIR

Bcl-2-like protein 1 [4] = target: T3, Bcl-2-like protein 1 (Homo sapiens, UniProt Q07817); assay: Binding affinity to full length human Bcl-xl expressed in Escherichia coli BL21 (DE3) at up to 100 uM preincubated for 30 mins followed by 5-FAM-QEDIIIINIARHLAQVGDSMD-RSIPPG tracer addition and measured after 20 mins by fluorescence polarization assay; conditions: dose microM <=100, time 50.0 min
T3 sequence (Q07817 whole entry): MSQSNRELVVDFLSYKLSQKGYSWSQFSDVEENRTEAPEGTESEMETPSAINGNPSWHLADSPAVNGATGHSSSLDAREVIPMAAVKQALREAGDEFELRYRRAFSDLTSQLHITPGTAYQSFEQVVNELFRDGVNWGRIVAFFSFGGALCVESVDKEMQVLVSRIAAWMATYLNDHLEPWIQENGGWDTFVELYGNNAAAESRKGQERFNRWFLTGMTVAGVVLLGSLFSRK

HEK-293T = assay: Cytotoxicity against HEK293T cells assessed as reduction in cell viability incubated for 48 hrs by CCK8 assay; conditions: Homo sapiens
RS4-11 = assay: cells; conditions: Homo sapiens, RS4-11, 48 h
Description: Cytotoxicity against human RS4-11 cells assessed as inhibition of cell growth incubated for 48 hrs by CCK8 assay

HeLa [5] = assay: Cytotoxicity against human HeLa cells assessed as cell viability at 20 uM incubated for 48 hrs by CCK8 assay relative to control; assay type: functional; conditions: read-out: Activity
[6] = target: T1, Apoptosis regulator Bcl-2; assay: Binding affinity to full length human Bcl-2 expressed in Escherichia coli BL21 (DE3) at up to 100 uM preincubated for 30 mins followed by 5-FAM-QEDIIIINIARHLAQVGDSMD-RSIPPG tracer addition and measured after 20 mins by fluorescence polarization assay; conditions: dose microM <=100, time 50.0 min
Bcl-2-like protein 1 [7] = target: T3, Bcl-2-like protein 1; assay: Binding affinity to full length human Bcl-xl expressed in Escherichia coli BL21 (DE3) assessed as inhibition constant preincubated for 30 mins followed by 5-FAM-QEDIIIINIARHLAQVGDSMD-RSIPPG tracer addition and measured after 20 mins by fluorescence polarization assay
[8] = Cytotoxicity against HEK293T cells assessed as cell viability at 20 uM incubated for 48 hrs by CCK8 assay relative to control; assay type: cell-based, HEK-293T; conditions: human, read-out: Activity
[9] = target: T2, Induced myeloid leukemia cell differentiation protein Mcl-1; assay: Binding affinity to full length human MCL1 expressed in Escherichia coli BL21 (DE3) at up to 100 uM preincubated for 30 mins followed by 5-FAM-QEDIIIINIARHLAQVGDSMD-RSIPPG tracer addition and measured after 20 mins by fluorescence polarization assay; conditions: dose microM <=100, time 50.0 min
[10] = target: T2, Induced myeloid leukemia cell differentiation protein Mcl-1; assay: Binding affinity to 15N-labeled human MCL1 (172 to 327 residues) expressed in Escherichia coli BL21 (DE3) assessed as chemical shift at H224 residue at 0.3 mM incubated for 1 hr by 15N HSQC NMR spectroscopy analysis
[11] = target: T2, Induced myeloid leukemia cell differentiation protein Mcl-1; assay: Binding affinity to 15N-labeled human MCL1 (172 to 327 residues) expressed in Escherichia coli BL21 (DE3) assessed as chemical shift at M231 residue at 0.3 mM incubated for 1 hr by 15N HSQC NMR spectroscopy analysis
[12] = target: T2, Induced myeloid leukemia cell differentiation protein Mcl-1; assay: Binding affinity to 15N-labeled human MCL1 (172 to 327 residues) expressed in Escherichia coli BL21 (DE3) assessed as chemical shift at R263 residue at 0.3 mM incubated for 1 hr by 15N HSQC NMR spectroscopy analysis
[13] = target: T2, Induced myeloid leukemia cell differentiation protein Mcl-1; assay: Binding affinity to 15N-labeled human MCL1 (172 to 327 residues) expressed in Escherichia coli BL21 (DE3) assessed as chemical shift at L235 residue at 0.3 mM incubated for 1 hr by 15N HSQC NMR spectroscopy analysis
[14] = target: T2, Induced myeloid leukemia cell differentiation protein Mcl-1; assay: Binding affinity to 15N-labeled human MCL1 (172 to 327 residues) expressed in Escherichia coli BL21 (DE3) assessed as chemical shift at F228 residue at 0.3 mM incubated for 1 hr by 15N HSQC NMR spectroscopy analysis
[15] = target: T2, Induced myeloid leukemia cell differentiation protein Mcl-1; assay: Binding affinity to 15N-labeled human MCL1 (172 to 327 residues) expressed in Escherichia coli BL21 (DE3) assessed as chemical shift at M250 residue at 0.3 mM incubated for 1 hr by 15N HSQC NMR spectroscopy analysis
[16] = target: T2, Induced myeloid leukemia cell differentiation protein Mcl-1; assay: Binding affinity to full length human MCL1 expressed in Escherichia coli BL21 (DE3) at 100 uM preincubated for 30 mins followed by 5-FAM-QEDIIIINIARHLAQVGDSMD-RSIPPG tracer addition and measured after 20 mins by fluorescence polarization assay relative to control; conditions: time 50.0 min
[17] = target: T1, Apoptosis regulator Bcl-2; assay: Binding affinity to full length human Bcl-2 expressed in Escherichia coli BL21 (DE3) at 100 uM preincubated for 30 mins followed by 5-FAM-QEDIIIINIARHLAQVGDSMD-RSIPPG tracer addition and measured after 20 mins by fluorescence polarization assay relative to control; conditions: time 50.0 min
Bcl-2-like protein 1 [18] = target: T3, Bcl-2-like protein 1; assay: Binding affinity to full length human Bcl-xl expressed in Escherichia coli BL21 (DE3) at 100 uM preincubated for 30 mins followed by 5-FAM-QEDIIIINIARHLAQVGDSMD-RSIPPG tracer addition and measured after 20 mins by fluorescence polarization assay relative to control; conditions: time 50.0 min

Compound | IC50 (HeLa [1]) | IC50 (HL-60) | Ki [2] | Ki [3] | Activity (Bcl-2-like protein 1 [4]) | IC50 (RS4-11) | Ki (Bcl-2-like protein 1 [7]) | IC50 (HEK-293T) | other results
O=C(NCCNS(=O)(=O)c1ccc(-c2ccccc2OCc2ccccc2)s1)Nc1cc(Cl)cc(Cl)c1 | > 20 µM | 11.7 µM | – | – | inactive | > 20 µM | – | – | Activity [6]: inactive; viability at 48 h, 20 µM [8]: 41%; Activity [9]: inactive
O=C(NCCNS(=O)(=O)c1ccc(-c2ccccc2Oc2ccc(O)c(O)c2)s1)Nc1cc(C(F)(F)F)cc(C(F)(F)F)c1 | > 20 µM | 10.5 µM | 3.9 µM | 0.42 µM | – | 4.9 µM | 1.5 µM | 17.1 µM | –
O=S(=O)(NCCNC(=S)Nc1cc(C(F)(F)F)cc(C(F)(F)F)c1)c1ccc(-c2ccccc2Oc2ccc(O)c(O)c2)s1 | > 20 µM | 18.3 µM | 2.6 µM | 0.37 µM | – | 10.3 µM | 0.93 µM | 12.3 µM | –
O=S(=O)(NCCNC(=S)Nc1cc(C(F)(F)F)cc(C(F)(F)F)c1)c1cc(-c2ccccc2Oc2ccc(O)c(O)c2)cs1 | > 20 µM | 0.6 µM | 4.6 µM | 0.32 µM | – | 4.5 µM | 1 µM | > 20 µM | –
CC(C)c1ccc(Oc2ccc(O)c(O)c2)c(-c2ccsc2S(=O)(=O)NCCNC(=S)Nc2cc(C(F)(F)F)cc(C(F)(F)F)c2)c1 | > 20 µM | 8.2 µM | 2.4 µM | 2.1 µM | – | 3.7 µM | 4.9 µM | 18.1 µM | Activity [10]: Active; Activity [11]: Active; Activity [12]: Active; Activity [13]: Active; Activity [14]: Active; Activity [15]: Active
O=C(NCCNS(=O)(=O)c1cc(-c2ccccc2Oc2ccc(O)c(O)c2)cs1)Nc1cc(C(F)(F)F)cc(C(F)(F)F)c1 | > 20 µM | 1.3 µM | 5.2 µM | 0.51 µM | – | 3.9 µM | 1.7 µM | > 50 µM | –
O=C(NCCNS(=O)(=O)c1ccc(-c2ccccc2O[C@H]2CC[C@H](O)CC2)s1)Nc1cc(C(F)(F)F)cc(C(F)(F)F)c1 | > 20 µM | 7.1 µM | – | – | inactive | 10.1 µM | – | – | Activity [6]: inactive; viability at 48 h, 20 µM [8]: 50%; Activity [9]: inactive
Cc1nn(C)c(COc2ccc(N3CCN(S(=O)(=O)N(C)C)CC3)cc2)c1-c1cccc2c(CCCOc3cccc4ccccc34)c(C(=O)O)n(CCN3CCOCC3)c12 | > 20 µM | 2.46 µM | – | < 0.001 µM | inactive | 7.31 µM | – | > 20 µM | Activity [10]: Active; Activity [11]: Active; Activity [6]: inactive; Activity [12]: Active; Activity [13]: Active; Activity [14]: Active; Activity [15]: Active
O=[N+]([O-])c1ccc(NC(=S)NCCNS(=O)(=O)c2ccc(-c3ccccc3OCc3cccc(O)c3)s2)cc1 | – | 10.8 µM | – | – | inactive | 10.1 µM | – | > 20 µM | viability at 20 µM (HeLa [5]): 28%; Activity [6]: inactive; Activity [9]: inactive

Now from value to compound, other results behind:

IC50 (HeLa [1]) | IC50 (HL-60) | Ki [2] | Ki [3] | Activity (Bcl-2-like protein 1 [4]) | IC50 (RS4-11) | Ki (Bcl-2-like protein 1 [7]) | Compound | IC50 (HEK-293T) | other results
> 50 µM | 6.9 µM | 4.6 µM | 1.4 µM | inactive | 6.2 µM | – | O=C(NCCNS(=O)(=O)c1sccc1-c1ccccc1Oc1ccc(O)c(O)c1)Nc1cc(Cl)cc(Cl)c1 | 10.7 µM | –
– | 3.4 µM | – | 7.5 µM | inactive | 6.1 µM | – | Cc1ccc(-c2ccsc2S(=O)(=O)NCCNC(=S)Nc2cccc([N+](=O)[O-])c2)c(Oc2ccc(O)c(O)c2)c1 | 7.9 µM | viability at 20 µM (HeLa [5]): 40%; Activity [6]: inactive
> 20 µM | 10.4 µM | 3.6 µM | 0.94 µM | – | 4.5 µM | 1.7 µM | O=C(NCCNS(=O)(=O)c1ccc(-c2ccccc2Oc2ccc(O)c(O)c2)s1)Nc1cc(Cl)cc(Cl)c1 | 12.4 µM | –
> 20 µM | 3.9 µM | 13 µM | 7.1 µM | inactive | 7.7 µM | – | Cc1ccc(-c2ccsc2S(=O)(=O)NCCNC(=O)Nc2ccc([N+](=O)[O-])cc2)c(Oc2ccc(O)c(O)c2)c1 | – | viability at 48 h, 20 µM [8]: 48%
> 50 µM | > 20 µM | 8.4 µM | 0.77 µM | – | > 50 µM | 1.7 µM | O=C(NCCNS(=O)(=O)c1cc(-c2ccccc2Oc2ccc(O)c(O)c2)cs1)Nc1cc(Cl)cc(Cl)c1 | > 20 µM | –
> 50 µM | 4.3 µM | 5.6 µM | 0.84 µM | inactive | 4.8 µM | – | O=S(=O)(NCCNC(=S)Nc1cc(C(F)(F)F)cc(C(F)(F)F)c1)c1sccc1-c1ccccc1Oc1ccc(O)c(O)c1 | 7.5 µM | –
> 50 µM | 5.7 µM | 17 µM | 2.1 µM | inactive | 4.9 µM | – | O=C(NCCNS(=O)(=O)c1sccc1-c1ccccc1Oc1ccc(O)c(O)c1)Nc1cc(C(F)(F)F)cc(C(F)(F)F)c1 | 8.9 µM | –
– | 5.3 µM | – | – | – | 9 µM | – | O=[N+]([O-])c1ccc(NC(=S)N2CCN(S(=O)(=O)c3sccc3-c3ccccc3Oc3ccc(O)c(O)c3)CC2)cc1 | > 20 µM | inhibition [16]: 81%; viability at 20 µM (HeLa [5]): 49%; inhibition [17]: 31%; inhibition (Bcl-2-like protein 1 [18]): 28%
> 20 µM | 8.4 µM | – | – | – | 9.5 µM | – | O=[N+]([O-])c1ccc(Oc2ccc(O)c(O)c2)c(-c2ccsc2S(=O)(=O)N2CCN(C(=S)Nc3cc(C(F)(F)F)cc(C(F)(F)F)c3)CC2)c1 | > 20 µM | Activity [10]: Active; inhibition [16]: 52%; Activity [11]: Active; Activity [12]: Active; inhibition [17]: 12%; inhibition (Bcl-2-like protein 1 [18]): 14%; Activity [13]: Active; Activity [14]: Active; Activity [15]: Active
> 50 µM | > 50 µM | – | – | – | > 50 µM | – | COc1ccc(Oc2ccccc2-c2ccsc2S(=O)(=O)N2CCN(C(=S)Nc3ccc(Cl)cc3)CC2)cc1OC | > 20 µM | inhibition [16]: 43%; inhibition [17]: 18%; inhibition (Bcl-2-like protein 1 [18]): 33%
6.5 µM | 3.5 µM | 2.9 µM | 0.59 µM | inactive | 5.1 µM | – | Cc1ccc(-c2ccsc2S(=O)(=O)NCCNC(=O)Nc2cc(Cl)cc(Cl)c2)c(Oc2ccc(O)c(O)c2)c1 | 6.7 µM | –
